Tests used:
c-Met-Grb2 interaction = molecular target: T1, c-Met-Grb2 interaction (Mus musculus, UniProt Q60631); experiment: c-Met-Grb2 co-immunoprecipitation/immunoblot in intact 32D c-met cells after HGF/NK1 stimulation; format: cell-based, murine; conditions: 32D c-met cells pretreated 16 h with 30 nM or 300 nM prior to HGF/NK1 stimulation
T1 construct: endogenous in cells; host or cells: murine 32D c-met cells
Description: To characterize the time period and dose which the Grb2 SH2 domain inhibitor (antagonist) compound of formula 4 enters intact cells, the murine IL-3-dependent cell line 32D c-met was used. The effects of the inhibitor on c-Met-Grb2 interaction was examined by co-immunoprecipitation/immunoblot analysis. Cells were cultured in RPMI 1640+15% FBS and 5% WEHI-3B conditioned medium. Intact 32Dc-met cells were treated with different amount (3, 30, 300 nM) of the compound for 1, 2, 4, and 16 h, then briefly stimulated with HGF/NK1 for 10 minutes before lysis, immunoprecipitated with anti-Grb2 antibodies (Santa Cruz), and immunoblotting with anti-c-Met (Santa Cruz), or anti-Grb2 (Transduction Lab). HGF/NK1 stimulated co-immunoprecipitation of the 145 kDa c-Met beta subunit with Grb2. When cells were pretreated for 16 h with 30 nM or 300 nM compound of formula 4 prior to HGF/NK1 stimulation, the amount of HGF receptor that was co-immunoprecipitated with Grb2 was reduced by approximately 50%.

[1] = system: erbB-2 driven breast cancer cells; experiment: Assay of cell proliferation (direct cell counting); format: cell-based; conditions: FIG. 26, read-out: IC50, cell growth inhibition

T1 sequence (Q60631 whole entry): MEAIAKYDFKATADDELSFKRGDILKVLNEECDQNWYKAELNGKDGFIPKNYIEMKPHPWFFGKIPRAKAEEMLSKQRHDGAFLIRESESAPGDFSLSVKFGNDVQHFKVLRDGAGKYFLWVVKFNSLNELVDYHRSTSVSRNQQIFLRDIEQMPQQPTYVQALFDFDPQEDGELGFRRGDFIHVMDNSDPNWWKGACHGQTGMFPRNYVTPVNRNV

Row | SMILES | Reduction of amount of HGF receptor co-immunoprecipitated with Grb2 (c-Met-Grb2 interaction) | IC50 [1] [nM] | melting point
1 | NC(=O)C[C@@H]1NC(=O)C2(CCCCC2)NC(=O)C[C@@H](c2ccc(CP(=O)(O)O)cc2)C=CC[C@@H](Cc2cccc3ccccc23)CNC1=O [Compound 4a, 2-[(9S, 13S, 17R)-8, 11, 20-triaza-13-(naphthylmethyl)-7, 10, 19-trioxo-17-[4-(phosphonomethyl)phenyl]spiro[5.14]icos-15-en-9-yl]acetamide] | approximately 50% | – | –
2 | NC(=O)C[C@@H]1NC(=O)C2(CCCCC2)NC(=O)[C@@H](CC(=O)O)[C@@H](c2ccc(CP(=O)(O)O)cc2)/C=C/C[C@@H](Cc2cccc3ccccc23)CNC1=O [Compound 233, 2-[(9S, 10S, 14S, 18S)-7, 16, 19-triaza-18-(carbamoylmethyl)-14-(naphthylmethyl)-8,17,20-trioxo-10-[4-(phosphonomethyl)phenyl]spiro[5.14]icos-11-en-9-yl]acetic acid] | – | < 1000 | 260 °C (dec.)
